Laboratory results reported in ChEMBL document CHEMBL4765457, “Targeting dual tolerant regions of binding pocket: Discovery of novel morpholine-substituted diarylpyrimidines as potent HIV-1 NNRTIs with significantly improved water solubility” (Eur J Med Chem, 2020).

Assays:
[1] = tested on: Human immunodeficiency virus 1; assay: Antiviral activity against HIV1 RES056 infected in human MT4 cells assessed as inhibition of virus-induced cytopathic effect incubated for 5 days by MTT assay; format: functional, organism-based; conditions: Human immunodeficiency virus 1, RES056, MT4, 120 h
[2] = tested on: Human immunodeficiency virus 1; assay: Antiviral activity against HIV1 3B infected in human MT4 cells assessed as virus-induced cytopathic effect incubated for 5 days by MTT assay; format: functional, organism-based; conditions: Human immunodeficiency virus 1, 3B, MT4, 120 h
[3] = Selectivity index, ratio of CC50 for human MT4 cells to EC50 for antiviral activity against HIV1 RES056 infected in human MT4 cells; format: toxicity, cell-based; conditions: read-out: Ratio CC50/EC50
[4] = Cytotoxicity against human MT4 cells assessed as reduction in cell viability incubated for 5 days by MTT assay; format: cell-based; conditions: time 5 day
[5] = Selectivity index, ratio of CC50 for human MT4 cells to EC50 for antiviral activity against HIV1 3B infected in human MT4 cells; format: toxicity, cell-based; conditions: read-out: Ratio CC50/EC50
[6] = Resistance index, ratio of EC50 for antiviral activity against HIV1 expressing RT L100I mutant infected in human MT4 cells to EC50 for antiviral activity against HIV1 3B infected in human MT4 cells; format: functional
[7] = tested on: Human immunodeficiency virus 1; assay: Antiviral activity against HIV1 harboring RT Y181C mutant infected in human MT4 cells assessed as inhibition of virus-induced cytopathic effect incubated for 5 days by MTT assay; format: functional, organism-based; conditions: Human immunodeficiency virus 1, MT4, 120 h
[8] = Resistance index, ratio of EC50 for antiviral activity against HIV1 expressing RT Y188L mutant infected in human MT4 cells to EC50 for antiviral activity against HIV1 3B infected in human MT4 cells; format: functional
[9] = tested on: Human immunodeficiency virus 1; assay: Antiviral activity against HIV1 harboring RT Y188L mutant infected in human MT4 cells assessed as inhibition of virus-induced cytopathic effect incubated for 5 days by MTT assay; format: functional, organism-based; conditions: Human immunodeficiency virus 1, MT4, 120 h
[10] = Resistance index, ratio of EC50 for antiviral activity against HIV1 expressing RT Y181C mutant infected in human MT4 cells to EC50 for antiviral activity against HIV1 3B infected in human MT4 cells; format: functional
[11] = tested on: Human immunodeficiency virus 1; assay: Antiviral activity against HIV1 harboring RT L100I mutant infected in human MT4 cells assessed as inhibition of virus-induced cytopathic effect incubated for 5 days by MTT assay; format: functional, organism-based; conditions: Human immunodeficiency virus 1, MT4, 120 h
[12] = Resistance index, ratio of EC50 for antiviral activity against HIV1 expressing RT E138K mutant infected in human MT4 cells to EC50 for antiviral activity against HIV1 3B infected in human MT4 cells; format: functional
[13] = tested on: Human immunodeficiency virus 1; assay: Antiviral activity against HIV1 harboring RT F227L/V106Amutant infected in human MT4 cells assessed as inhibition of virus-induced cytopathic effect incubated for 5 days by MTT assay; format: functional, organism-based; conditions: Human immunodeficiency virus 1, MT4, 120 h
[14] = Resistance index, ratio of EC50 for antiviral activity against HIV1 expressing RT K103N mutant infected in human MT4 cells to EC50 for antiviral activity against HIV1 3B infected in human MT4 cells; format: functional
[15] = Resistance index, ratio of EC50 for antiviral activity against HIV1 expressing RT F227L/V106A mutant infected in human MT4 cells to EC50 for antiviral activity against HIV1 3B infected in human MT4 cells; format: functional
[16] = tested on: Human immunodeficiency virus 1; assay: Antiviral activity against HIV1 harboring RT K103N mutant infected in human MT4 cells assessed as inhibition of virus-induced cytopathic effect incubated for 5 days by MTT assay; format: functional, organism-based; conditions: Human immunodeficiency virus 1, MT4, 120 h
[17] = tested on: Human immunodeficiency virus 1; assay: Antiviral activity against HIV1 harboring RT E138K mutant infected in human MT4 cells assessed as inhibition of virus-induced cytopathic effect incubated for 5 days by MTT assay; format: functional, organism-based; conditions: Human immunodeficiency virus 1, MT4, 120 h

SMILES | EC50 [1] [µM] | EC50 [2] [µM] | selectivity ratio [3] | CC50 at 120 h [4] [µM] | selectivity ratio [5] | Ratio EC50 [6] | EC50 [7] [µM] | Ratio EC50 [8] | EC50 [9] [µM] | Ratio EC50 [10] | EC50 [11] [µM] | Ratio EC50 [12] | EC50 [13] [µM] | Ratio EC50 [14] | Ratio EC50 [15] | EC50 [16] [µM] | EC50 [17] [µM]
Cc1cc(C#N)cc(C)c1Oc1nc(NC2CCN(CC(=O)N3CCOCC3)CC2)nc2cc(F)ccc12 | > 16.4 | 0.577 | < 2.51 | 41.1 | 71 | – | – | – | – | – | – | – | – | – | – | – | –
Nc1ccn([C@@H]2CS[C@H](CO)O2)c(=O)n1 [LAMIVUDINE] | 8.35 | 5.02 | > 10 | > 87.2 | > 17 | 0.3 | 4.79 | 0.7 | 3.36 | 1 | 1.62 | 1.3 | 2.77 | 0.7 | 0.6 | 3.75 | 6.64
Cc1cc(C#N)cc(C)c1Oc1nc(NC2CCN(Cc3ccc(S(N)(=O)=O)cc3)CC2)nc2ccsc12 | – | – | – | – | – | 2.4 | – | 2.1 | – | 2.3 | – | 2 | 0.0042 | 2 | 3 | – | –
COc1cc2nc(NC3CCN(CCN4CCOCC4)CC3)nc(Oc3c(C)cc(C#N)cc3C)c2cc1OC | > 121 | 1.79 | < 1 | 121 | 68 | – | – | – | – | – | – | – | – | – | – | – | –
Cc1cc(C#N)cc(C)c1Oc1ccnc(NC2CCN(CCN3CCOCC3)CC2)n1 | > 246 | 1.12 | < 1 | 246 | 219 | – | – | – | – | – | – | – | – | – | – | – | –
Cc1cn([C@H]2C[C@H](N=[N+]=[N-])[C@@H](CO)O2)c(=O)[nH]c1=O [ZIDOVUDINE] | 0.024 | 0.019 | > 311 | > 7.48 | > 397 | 0.3 | 0.016 | 0.5 | 0.009 | 0.9 | 0.006 | 1.4 | 0.009 | 1 | 0.5 | – | 0.027
Cc1cc(C#N)cc(C)c1Oc1nc(NC2CCN(CCN3CCOCC3)CC2)nc2c1SCC2 | > 43 | 0.114 | < 1 | 43 | 376 | – | – | – | – | – | – | – | – | – | – | – | –
O=C1Nc2ccc(Cl)cc2[C@@](C#CC2CC2)(C(F)(F)F)O1 [EFAVIRENZ] | – | – | – | > 6.34 | – | – | 0.006 | – | – | – | 0.04 | – | – | – | – | 0.094 | –
Cc1cc(C#N)cc(C)c1Oc1ccnc(NC2CCN(CC(=O)N3CCOCC3)CC2)n1 | > 143 | 0.141 | < 1 | 143 | 1020 | – | – | – | – | – | – | – | – | – | – | – | –
Cc1cc(C#N)cc(C)c1Oc1nc(NC2CCN(CCN3CCOCC3)CC2)nc2c1CSC2 | > 28.5 | 0.173 | < 1 | 28.5 | 164 | 95.6 | 13.2 | 79.7 | 13.8 | 76.2 | 16.6 | 6.8 | 11.8 | 11.3 | 68.4 | 1.96 | 1.18
Cc1cc(C#N)cc(C)c1Oc1nc(NC2CCN(CC(=O)N3CCOCC3)CC2)nc2ccsc12 | > 41.9 | 0.101 | < 1 | 41.9 | 416 | 51.4 | 5.27 | 48.8 | 4.92 | 52.4 | 5.17 | 1.7 | ≥ 17.9 | 13.7 | >=178.1 | 1.38 | 0.171
Cc1cc(C#N)cc(C)c1Oc1nc(NC2CCN(CC(=O)N3CCOCC3)CC2)nc2c1COC2 | > 184 | 0.149 | < 1 | 184 | 1240 | – | – | – | – | – | – | – | – | – | – | – | –
Cc1ccnc2c1NC(=O)c1cccnc1N2C1CC1 [NEVIRAPINE] | > 15 | – | – | > 15 | > 92 | 6.3 | 6.69 | >=46.9 | ≥ 7.7 | 40.7 | 1.03 | 1.2 | ≥ 5.41 | 31.1 | >=32.9 | 5.1 | 0.191
Cc1cc(C#N)cc(C)c1Oc1nc(NC2CCN(CCN3CCOCC3)CC2)nc2scnc12 | > 88.6 | 0.291 | < 1 | 88.6 | 305 | – | – | – | – | – | – | – | – | – | – | – | –
Cc1cc(C#N)cc(C)c1Oc1nc(NC2CCN(CC(=O)N3CCOCC3)CC2)nc2ccoc12 | > 125 | 0.327 | < 1 | 125 | 383 | – | – | – | – | – | – | – | – | – | – | – | –
Cc1cc(C#N)cc(C)c1Oc1nc(NC2CCN(CCN3CCOCC3)CC2)nc2c1COC2 | > 140 | 0.366 | < 1 | 140 | 383 | – | – | – | – | – | – | – | – | – | – | – | –
Cc1cc(C#N)cc(C)c1Oc1nc(NC2CCN(CCN3CCOCC3)CC2)nc2ccccc12 | > 26 | 0.502 | < 1 | 26 | 52 | – | – | – | – | – | – | – | – | – | – | – | –
Cc1cc(C#N)cc(C)c1Oc1nc(NC2CCN(CC(=O)N3CCOCC3)CC2)nc2ccccc12 | > 42.6 | 0.597 | < 1 | 42.6 | 71 | – | – | – | – | – | – | – | – | – | – | – | –
Cc1cc(C#N)cc(C)c1Oc1nc(NC2CCN(CCN3CCOCC3)CC2)nc2c1CCC2 | > 49.1 | 0.188 | < 1 | 49.1 | 261 | – | – | – | – | – | – | – | – | – | – | – | –
Cc1cc(C#N)cc(C)c1Oc1nc(NC2CCN(CCN3CCOCC3)CC2)nc2ccoc12 | > 138 | 1.1 | < 1 | 138 | 125 | – | – | – | – | – | – | – | – | – | – | – | –
